Our source for the IC50 values is patent US20250353841A1 (BIOGEN MA INC., priority 2022, published 2025).

The subject of this assay is mutant Huntington (HTT) protein. In words: HTT Mutant HTRF iPSC assay (mHTT protein lowering). It is filed as cell-based. Conditions: human iPSC derived from a HTT patient with a poly-Q49 mutation.

For `CN[C@H]1CCC[C@@H](c2cn3cc(-c4cc(F)c5nn(C)cc5c4)cc(F)c3n2)C1` (stereo in doubt) [Compound 163, rel-(1R,3S)-3-(8-fluoro-6-(7-fluoro-2-methyl-2H-indazol-5-yl)imidazo[1,2-a]pyridin-2-yl)-N-methylcyclohexan-1-amine], the IC50 was 100 to 1000 nM.

For the molecule `Cc1cn2nc(-c3cc(F)c4nc(NC(=O)C5(C)CN(C)C5)cn4c3)cc(C)c2n1` [Compound 261, N-(6-(2,8-dimethylimidazo[1,2-b]pyridazin-6-yl)-8-fluoroimidazo[1,2-a]pyridin-2-yl)-1,3-dimethylazetidine-3-carboxamide], the IC50 is < 100 nM. Next, `COc1cc(-c2cc(C)c3nn(C)cc3c2)cc2cn(C3CCNCC3)nc12` [Compound 544, 7-methoxy-2′,7′-dimethyl-2-(piperidin-4-yl)-2H,2′H-5,5′-biindazole]: 1000 to 9000 nM; `Cc1cc(-c2cc(F)c3nc(C4CCN(C)CC4)cn3c2)cc2cn(C)nc12` [Compound 6, 5-(8-fluoro-2-(1-methylpiperidin-4-yl)imidazo[1,2-a]pyridin-6-yl)-2,7-dimethyl-2H-indazole]: 100 to 1000 nM; `Cc1cn2nc(-c3cc(F)c4nn(C5CCNCC5)cc4c3)cc(C)c2n1` [Compound 355, 6-(7-fluoro-2-(piperidin-4-yl)-2H-indazol-5-yl)-2,8-dimethylimidazo[1,2-b]pyridazine]: < 100 nM. Next, `Cc1cn2nc(-c3cc(F)c4nc(NC(=O)C5CN(C(C)C)C5)cn4c3)cc2c(C)n1` [Compound 295, N-(6-(4,6-dimethylpyrazolo[1,5-a]pyrazin-2-yl)-8-fluoroimidazo[1,2-a]pyridin-2-yl)-1-isopropylazetidine-3-carboxamide]: < 100 nM. Under `Cc1cn2nc(-c3cc(F)c4nc([C@H]5C[C@]6(CN[C@H](C)C6)C5)cn4c3)cc(C)c2n1` (single isomer, unassigned) [Compound 178, 6-(8-fluoro-2-((2R*,4r,7R*)-7-methyl-6-azaspiro[3.4]octan-2-yl)imidazo[1,2-a]pyridin-6-yl)-2,8-dimethylimidazo[1,2-b]pyridazine] stands < 100 nM; under `Cc1cn2nc(-c3cc(F)c4nc(C5CCN(C)CC5)cn4c3)ccc2n1` [Compound 4, 6-[8-fluoro-2-(1-methyl-4-piperidyl)imidazo[1,2-a]pyridin-6-yl]-2-methyl-imidazo[1,2-b]pyridazine], 100 to 1000 nM; under `Cc1cn2nc(-c3cc(F)c4nc(NC(=O)C5CCCN(C)C5)nn4c3)cc(C)c2n1` (single isomer, unassigned) [Compound 326], 100 to 1000 nM. Regarding `Cc1cn2nc(-c3cc(F)c4nc(CC5CCN(C)CC5)cn4c3)cc(C)c2n1` [Compound 237, 6-(8-fluoro-2-((1-methylpiperidin-4-yl)methyl)imidazo[1,2-a]pyridin-6-yl)-2,8-dimethylimidazo[1,2-b]pyridazine], the IC50 is < 100 nM. Regarding `Cc1cn2nc(-c3cc(F)c4nc(C5CCNC(C)(C)C5)cn4c3)cc(C)c2n1` (single isomer, unassigned) [Compound 235], the IC50 is < 100 nM. Next, `COc1cc(-c2cc3c(C)nc(C)cn3n2)cn2cc([C@H]3[C@@H]4CN(C)C[C@@H]43)nc12` [Compound 542, 2-(8-methoxy-2-((1R,5S,6r)-3-methyl-3-azabicyclo[3.1.0]hexan-6-yl)imidazo[1,2-a]pyridin-6-yl)-4,6-dimethylpyrazolo[1,5-a]pyrazine]: 100 to 1000 nM.

On to `Cn1nnc2ccc(-c3cc(F)c4nc(C5CCNCC5)cn4c3)cc21` [Compound 29, 6-(8-fluoro-2-(piperidin-4-yl)imidazo[1,2-a]pyridin-6-yl)-1-methyl-1H-benzo[d][1,2,3]triazole], for which the IC50 is 100 to 1000 nM. Next, `CNCCc1cn2cc(-c3cc(F)c4nc(C)cn4c3)cc(F)c2n1` [Compound 24, 2-(8,8′-difluoro-2′-methyl-[6,6′-biimidazo[1,2-a]pyridin]-2-yl)-N-methylethan-1-amine]: 1000 to 9000 nM; `CN1CCC2(c3cn4cc(-c5cc(F)c6nn(C)cc6c5)cc(F)c4n3)CC1C2` [Compound 76, 5-(8-fluoro-6-(7-fluoro-2-methyl-2H-indazol-5-yl)imidazo[1,2-a]pyridin-2-yl)-2-methyl-2-azabicyclo[3.1.1]heptane]: 1000 to 9000 nM; `Cn1cc2cc(-c3cc(F)c4nc([C@@H]5CNCCO5)cn4c3)cc(F)c2n1` (single isomer, unassigned) [Compound 71]: 100 to 1000 nM. `Fc1cc(-c2ccn3nccc3c2)cn2cc(C3CCNCC3)nc12` [Compound 34, 8-fluoro-2-(piperidin-4-yl)-6-(pyrazolo[1,5-a]pyridin-5-yl)imidazo[1,2-a]pyridine] yielded an IC50 of 1000 to 9000 nM. Next, `Cc1cn2nc(-c3cc(F)c4nc(N5CCCC(N(C)C)C5)oc4c3)cc(C)c2n1` (centres unmarked) [Compound 500, 1-(6-(2,8-dimethylimidazo[1,2-b]pyridazin-6-yl)-4-fluorobenzo[d]oxazol-2-yl)-N,N-dimethylpiperidin-3-amine]: 100 to 1000 nM; `Cc1cn2nc(-c3cc(F)c4nn(C5CCN(C)CC5)cc4c3)cc(C)c2n1` [Compound 362, 6-(7-fluoro-2-(1-methylpiperidin-4-yl)-2H-indazol-5-yl)-2,8-dimethylimidazo[1,2-b]pyridazine]: < 100 nM; `Cc1cn2nc(-c3cc(F)c4[nH]c(C5CC6CC(N)C6C5)nc4c3)cc(C)c2n1` (centres unmarked) [Compound 423, 3-(5-(2,8-dimethylimidazo[1,2-b]pyridazin-6-yl)-7-fluoro-1H-benzo[d]imidazol-2-yl)bicyclo[3.2.0]heptan-6-amine]: 100 to 1000 nM. Under `Cc1cn2nc(-c3cc(F)c4nn(C5CCN(C)C5)cc4c3)cc(C)c2n1` (centres unmarked) [Compound 366, 6-(7-fluoro-2-(1-methylpyrrolidin-3-yl)-2H-indazol-5-yl)-2,8-dimethylimidazo[1,2-b]pyridazine] stands 1000 to 9000 nM; under `Cc1cn2nc(-c3cc(F)c4[nH]c(C5CC6(CCNCC6)C5)nc4c3)cc(C)c2n1` [Compound 421, 6-(7-fluoro-2-(7-azaspiro[3.5]nonan-2-yl)-1H-benzo[d]imidazol-5-yl)-2,8-dimethylimidazo[1,2-b]pyridazine], 100 to 1000 nM.

On to `COCCCN1CCC(c2cn3cc(-c4cc(C)c5nc(C)cn5n4)cc(F)c3n2)CC1` [Compound 45, 6-(8-fluoro-2-(1-(3-methoxypropyl)piperidin-4-yl)imidazo[1,2-a]pyridin-6-yl)-2,8-dimethylimidazo[1,2-b]pyridazine], for which the IC50 was < 100 nM.

Turning to `Cc1cn2nc(-c3cc(F)c4nn(C5CCN(C)CC5)cc4c3)cc(C(F)F)c2n1` [Compound 363, 8-(difluoromethyl)-6-(7-fluoro-2-(1-methylpiperidin-4-yl)-2H-indazol-5-yl)-2-methylimidazo[1,2-b]pyridazine], the IC50 was < 100 nM. For `Cc1nc2c(C)cc(-c3cc(F)c4nc([C@H]5[C@@H]6CN(C)C[C@@H]65)cn4c3)nn2n1` [Compound 227, 6-(8-fluoro-2-((1R,5S,6r)-3-methyl-3-azabicyclo[3.1.0]hexan-6-yl)imidazo[1,2-a]pyridin-6-yl)-2,8-dimethyl-[1,2,4]triazolo[1,5-b]pyridazine], the IC50 is < 100 nM. As for `Cc1cn2nc(-c3cc(F)c4nc(NC(=O)C5CN(C)C5)cn4c3)cc(C)c2n1` [Compound 257, N-(6-(2,8-dimethylimidazo[1,2-b]pyridazin-6-yl)-8-fluoroimidazo[1,2-a]pyridin-2-yl)-1-methylazetidine-3-carboxamide], the 50% inhibitory concentration (IC50) is < 100 nM. Next, `CCN1CCC(c2cn3cc(-c4cc(C)c5nn(C)cc5c4)cc(F)c3n2)CC1` [Compound 25, 5-(2-(1-ethylpiperidin-4-yl)-8-fluoroimidazo[1,2-a]pyridin-6-yl)-2,7-dimethyl-2H-indazole]: 100 to 1000 nM.

For `CN1CCC(c2cn3cc(-c4cc(F)c5nn(C)cc5c4)cc(F)c3n2)CC1` [Compound 26, 7-fluoro-5-(8-fluoro-2-(1-methylpiperidin-4-yl)imidazo[1,2-a]pyridin-6-yl)-2-methyl-2H-indazole], the IC50 is 100 to 1000 nM. Next, `Cc1cn2nc(-c3cc(F)c4nc(N5CCC(N(C)C)CC5)oc4c3)cc(C(F)F)c2n1` [Compound 495, 1-(6-(8-(difluoromethyl)-2-methylimidazo[1,2-b]pyridazin-6-yl)-4-fluorobenzo[d]oxazol-2-yl)-N,N-dimethylpiperidin-4-amine]: < 100 nM; `Cc1cn2nc(-c3cc(F)c4nn(C5CCN(C)CC5)nc4c3)cc(C(F)F)c2n1` [Compound 375, 6-[8-(difluoromethyl)-2-methyl-imidazo[1,2-b]pyridazin-6-yl]-4-fluoro-2-(1-methyl-4-piperidyl)benzotriazole]: 100 to 1000 nM; `Cc1cn2cc(-c3cc(F)c4nc(CC5CNC5)cn4c3)cc(F)c2n1` [Compound 21, 2-(azetidin-3-ylmethyl)-8,8′-difluoro-2′-methyl-6,6′-biimidazo[1,2-a]pyridine]: 1000 to 9000 nM. Under `Cc1cn2nc(-c3cc(F)c4nc([C@H]5C[C@@H](CN(C)C)C5)cn4c3)cc(C)c2n1` [Compound 182, 1-((1s,3s)-3-(6-(2,8-dimethylimidazo[1,2-b]pyridazin-6-yl)-8-fluoroimidazo[1,2-a]pyridin-2-yl)cyclobutyl)-N,N-dimethylmethanamine] stands < 100 nM; under `Cc1cn2nc(-c3cc(F)c4nc([C@@H]5CCNC6(CC6)C5)cn4c3)cc(C)c2n1` (single isomer, unassigned) [Compound 179], 100 to 1000 nM. Turning to `Cc1cn2nc(-c3cc(F)c4nc(NC(=O)CC5CCCN5C)nn4c3)cc(C)c2n1` (racemic) [Compound 329, N-(6-(2,8-dimethylimidazo[1,2-b]pyridazin-6-yl)-8-fluoro-[1,2,4]triazolo[1,5-a]pyridin-2-yl)-2-(1-methylpyrrolidin-2-yl)acetamide], the IC50 lay in the range of 100 to 1000 nM.

`Cc1cn2nc(-c3cc(F)c4nc(C(=O)NCC5CCCN5C)cn4c3)cc(C)c2n1` (centres unmarked) [Compound 334, 6-(2,8-dimethylimidazo[1,2-b]pyridazin-6-yl)-8-fluoro-N-((1-methylpyrrolidin-2-yl)methyl)imidazo[1,2-a]pyridine-2-carboxamide] displayed a concentration for half-maximal inhibition (IC50) of 100 to 1000 nM.

For orientation: IC50 means the concentration at which inhibition is half-maximal.
